For data set [1], the system named is Polyclonal CD4^+CD25^− spleen T cells. In words: APC-free Th-17 generation (anti-CD3/CD28 beads, IL-17 cond.: TGF-β, IL-6, IL-1β, TNF-α). Type of data set: cell-based, mouse. On the procedure: (§1) The culture medium used for dendritic cell-T cell cultures was Iscove's modified Dulbecco medium (IMDM) (Gibco, USA) supplemented with 10% heat-inactivated FCS, 2 mM L-glutamine, 100 U/ml penicillin, 100 μg/ml streptomycin, and 5 mM β-mercaptoethanol (all Sigma, USA). […] For dendritic cell-T cell cultures, 2×10^4 dendritic cells and 1×10^5 T cells were cultured in a volume of 200 μl (96-well plates). For irradiated APC-T cell cultures, 5×10^5 APCs and 1×10^5 T cells were cultured in a volume of 200 μl in 96-well plates (2×10^6 APCs and 0.5×10^6 T cells per well in 48-well plates). […] For the study shown in FIG. 4A, after sorting of naive CD4^+ cells (CD25^−CD44^lowCD62L^+), cells were washed twice in PBS+0.1% BSA, counted and labeled with 2 μM of CFSE (Carboxyfluorescein diacetate, succinimidyl ester) (Molecular Probes, USA) at a concentration of 5−10×10^6 cells per ml in PBS-0.1% BSA.
(§2) To block non-specific staining, the 2.4G2 anti-CD16/32 antibody was added. […] For intracellular cytokine staining, cells obtained from in vitro cultures or isolated IELs were incubated for 4-5 hours with 50 ng/ml PMA, 750 ng/ml Ionomycin (both Sigma, USA) and 10 μg/ml Brefeldin A (Invitrogen, USA) in a tissue culture incubator at 37° C.

The subject of a further data set is RORγt. In words: RORγt mRNA by real-time PCR in CD4 T cells under Th-17 culture conditions. Particulars: α-CD3ε and α-CD28, IL-17 inducing cytokines. Type of data set: cell-based, mouse. The source says: For analysis of RORγ-T mRNA expression, naïve CD4^+T cells were purified essentially as described by Ivanov et al. [Ivanov, II et al., Cell 126, 1121 (2006)]. In brief, CD4+ T cells were purified from spleens of C57BL/6 mice using anti-CD4 magnetic microbeads (Miltenyi Biotec) and MACS columns. CD4^+T cells were stained with anti-CD25-PE, anti-CD4-PECy5, anti-CD62L-FITC, and anti-CD44-APC. The CD4^+CD25^− CD44^lowCD62L^+ T cells population was sorted by flow cytometry using a FACS-DIVA cell sorter (>99% purity). Some studies were also performed using CD4^+CD45RB^high T cell population, sorted as described above.
At different time-points, cells were harvested, washed with sterile PBS and resuspended in TRIZol (Invitrogen, USA). Samples were then frozen and kept at −80° C. for later utilization. For RNA isolation, the whole tissue was homogenized and RNA was separated from DNA and proteins by precipitation with chloroform and extraction with isopropanol. The cDNA was synthesized from the total RNA using the Superscript II system (Invitrogen, USA) following the instructions provided by the manufacturer. […] Data were collected and analyzed on an iCycler Bio-Rad (Hercules, USA).

The test system of data set [2] is CD4^+CD25^−T cells. In words: TGF-β-dependent Foxp3 induction (Treg differentiation) in CD4 T cells with dendritic cells or APCs. Type of data set: cell-based, mouse. The procedure: (§3) For CD4^+CD25^− T cell isolation, spleens were removed, teased into cell-single suspensions and filtered through a 70 μm cell strainer (Fisher Scientific, USA). CD4^+CD25^−T cells were isolated by negative selection after incubation with a mix of specific biotin-conjugated mAbs (anti-CD8, CD11b, CD11ε, CD25, CD45R (B220), NK1.1, and TER119) at 1/200 dilution, and anti-biotin magnetic microbeads (25-40 μl per spleen) (Miltenyi Biotec, USA).
For dendritic cells isolation, spleen and MLN were chopped and digested by collagenase type D (Roche, USA) for 30 min at room temperature. Digested tissues were treated with 5 mM of EDTA for additional 5 min and mashed through a 70 μm cell strainer. Subsequently, CD11c^+ cells were enriched by positive selection using anti-CD11c microbeads according to the manufacturer's protocol (Miltenyi Biotec, USA). Enriched populations were stained with CD45-APC, CD 11c-PE, I-A^b-FITC and TCR β and sorted for TCRβ^−CD45^+CD11c^+I-Ab^+ by flow cytometry using a FACS-DIVA cell sorter (USA).
as §1
(§4) For Foxp3 staining, no stimulation with PMA/Ionomycin was performed, with the exceptions of FIGS. 8B and 9A. […]

Data set [3] concerns CD8^+T cells from OT-I TCR transgenic mice. The procedure:
as §1
(§5) For Foxp3 staining, no stimulation with PMA/Ionomycin was performed, with the exceptions of FIGS. 8B and 9A.

Data set [4] deals with CD4^+CD25^−T cells. In words: CTLA-4, CD103, CCR9 and CD25 staining of CD4 T cells stimulated with spleen APCs plus TGF-β1 and/or RA. Type of data set: cell-based, mouse. On the procedure: as §3
APCs were isolated from spleen of C57BL/6 mice by negative selection using CD90.2 (Thy1.2) magnetic microbeads to deplete T cells (Miltenyi Biotec).
as §1, §2

The next data set relates to naïve CD4^+T cells. In words: Re-stimulation (secondary cultures) of in vitro differentiated CD4 T cells: Foxp3 and IL-17 staining. Type of data set: cell-based, mouse. To be noted: cells first stimulated with TGF-β and IL-6, rested. On the procedure: as §1, §2, §4
Data set [5] relates to naïve CD4^+T cells from B7.1/2^−/− IL-2^+/+ or B7.1/2^−/− IL-2^−/− mice. In words: RA-mediated effects on T cell differentiation without IL-2 (anti-IL-2 or IL-2−/− T cells) or with exogenous IL-2. Type of data set: cell-based, mouse. The procedure:
as §1, §5

The next data set has as its system RAR. Particulars: cited from earlier work.
The next data set relates to CD8^+ spleen T cells. Put plainly: IL-17^+ cell generation from CD8^+ T cells activated with TGF-β and IL-6.

Consider `CC1=C(/C=C/C(C)=C/C=C/C(C)=C/C(=O)O)C(C)(C)CCC1` [RA, All-trans retinoic acid], for which, in [1], the “generation of IL-17^+ T cells under APC-free conditions” value is “also inhibited the generation of IL-17^+T cells”. Also, the “RORγt mRNA expression” value in the data set with RORγt is on record as “greatly reduced its expression”. For the same molecule, in the data set with CD4^+CD25^−T cells [2] (OT-II CD4 cells, OVAp, TGF-β1, LE135 1 μM, RA 100 nM), the “TGF-β-dependent Foxp3 induction by MLN dendritic cells” value is recorded as “enhanced”. The “TGF-β-dependent Foxp3 induction under low amounts of TGF-β” value with CD4^+CD25^−T cells [2] (TGF-β 0.5 ng/ml, TCR-transgenic CD4 cells) is reported as “still enhances”. Also, the “CD103 expression on CD8 cells” value in data set [3] (TGF-β and RA) is reported as “synergized to upregulate CD103 expression”. Further, the “CD25 expression of CD8 T cells upon in vitro activation” value in data set [3] (in the presence of TGF-β and RA) is on record as “down-regulate CD25 expression”. Also, the “expression of CTLA-4 on TGF-β-generated Foxp3^+ cells” value in the data set with CD4^+CD25^−T cells [4] was “promoted the expression of CTLA-4”. The “induction of CTLA-4 on Foxp3^− and Foxp3^+ activated cells (early)” value in the data set with CD4^+CD25^−T cells [4] (OT-II CD4 T cells, spleen APCs, TGF-β and RA) is listed as “delayed”. For the same molecule, the “CTLA-4 and Foxp3 phenotype of the majority of cells at later time-points” value in the data set on CD4^+CD25^−T cells [4] (OT-II CD4 T cells, spleen APCs, cultured with TGF-β and RA) was “both CTLA-4 and Foxp3^+”. Also, in the data set with CD4^+CD25^−T cells [4] (soluble α-CD3ε, spleen APCs, TGF-β1), the “TGF-β-mediated CD103 expression on CD4 cells” value was “greatly enhanced”. Moreover, in the data set with naïve CD4^+T cells, the “committed Th-17 cells in secondary cultures” value is given as “also suppressed committed Th-17 cells”. For the same molecule, the “requirement for exogenously added IL-2” value in data set [5] was “did not require exogenously added IL-2”. The “CD103 phenotype of the Foxp3^+Tregs generated” value in data set [5] (TGF-β-dependent Foxp3 differentiation) was “mostly CD103^+Tregs”. In [5] (anti-IL-2 (20 μg/ml) or IL-2−/− T cells), the “dependence of Foxp3^+ enhancing and Th-17 inhibitory effects on IL-2” value is given as “for the most part dependent on IL-2”. Further, in data set [5] (culture supernatants), the “IL-17 cytokine secretion (ELISA)” value is given as “measurably decreased”. Further, the “binding to RAR-RAR homodimers and RAR-RXR heterodimers” value in the data set on RAR is listed as “can bind”. Further, the “generation of IL-17^+ T cells from cytotoxic CD8^+ T lymphocytes” value in the data set on CD8^+ spleen T cells (WT or OT-I TCR^+ CD8^+ T cells, TGF-β and IL-6) is reported as “again able to inhibit this”. In addition, in the data set with CD8^+ spleen T cells (cultured with RA), the “Foxp3 / Th-17 differentiation of CD8 T cells under conditions that promote Th-17 differentiation” value was “converted to Foxp3^+ cells with a decrease in Th-17 differentiation”.

The values above are taken from US20090136470A1, “REGULATORY T CELLS AND METHODS OF MAKING AND USING SAME” (priority 2007, published 2009).
